The values below come from ChEMBL document CHEMBL3585305, “Structure-Based Design and Optimization of Multitarget-Directed 2H-Chromen-2-one Derivatives as Potent Inhibitors of Monoamine Oxidase B and Cholinesterases” (J Med Chem, 2015).

Structures are written as SMILES.

Test [1] deals with T1, Amine oxidase [flavin-containing] B (Rattus norvegicus, UniProt P19643).
T1 sequence (P19643 whole entry): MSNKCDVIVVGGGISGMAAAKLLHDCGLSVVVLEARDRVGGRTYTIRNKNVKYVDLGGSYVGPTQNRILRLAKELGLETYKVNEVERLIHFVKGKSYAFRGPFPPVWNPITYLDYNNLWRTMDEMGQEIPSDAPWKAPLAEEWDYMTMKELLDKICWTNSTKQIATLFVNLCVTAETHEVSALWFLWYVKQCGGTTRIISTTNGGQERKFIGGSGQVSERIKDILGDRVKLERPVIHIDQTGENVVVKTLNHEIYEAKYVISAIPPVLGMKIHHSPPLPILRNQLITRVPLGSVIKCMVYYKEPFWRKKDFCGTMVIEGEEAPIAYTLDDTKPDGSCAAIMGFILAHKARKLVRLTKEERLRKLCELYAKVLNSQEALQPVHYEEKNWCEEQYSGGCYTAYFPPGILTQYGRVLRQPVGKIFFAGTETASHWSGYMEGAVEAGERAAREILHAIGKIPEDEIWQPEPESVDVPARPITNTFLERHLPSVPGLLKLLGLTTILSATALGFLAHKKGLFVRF
Briefly: Inhibition of rat brain MAO-B using kynuramine substrate […] by spectrophotometric assay.

Test [2] concerns the target Acetylcholinesterase (Homo sapiens, UniProt P22303). Briefly: Inhibition of human recombinant AChE by spectrophotometric Ellman's method.
The target in test [3] is Cholinesterase (Equus caballus, UniProt P81908). Briefly: Inhibition of equine serum BuChE by spectrophotometric Ellman's method.
Test [4] addresses Acetylcholinesterase (Electrophorus electricus, UniProt O42275). The experiment in a line: Inhibition of electric eel AChE by spectrophotometric Ellman's method.
Test [5] deals with T2, Amine oxidase [flavin-containing] A (Rattus norvegicus, UniProt P21396).
T2 sequence (P21396 whole entry): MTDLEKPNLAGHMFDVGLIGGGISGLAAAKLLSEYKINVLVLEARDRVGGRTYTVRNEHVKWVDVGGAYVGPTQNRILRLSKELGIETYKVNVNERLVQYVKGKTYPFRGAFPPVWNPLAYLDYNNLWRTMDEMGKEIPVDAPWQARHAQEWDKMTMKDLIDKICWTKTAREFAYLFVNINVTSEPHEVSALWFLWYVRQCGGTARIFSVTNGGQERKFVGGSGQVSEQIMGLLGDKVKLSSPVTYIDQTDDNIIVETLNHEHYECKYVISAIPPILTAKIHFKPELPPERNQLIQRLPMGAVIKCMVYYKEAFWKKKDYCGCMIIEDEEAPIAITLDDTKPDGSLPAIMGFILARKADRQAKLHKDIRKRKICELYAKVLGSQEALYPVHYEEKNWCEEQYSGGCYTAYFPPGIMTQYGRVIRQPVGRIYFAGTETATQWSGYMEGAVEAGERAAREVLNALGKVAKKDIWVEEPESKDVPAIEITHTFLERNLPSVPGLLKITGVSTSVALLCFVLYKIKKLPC
Briefly: Inhibition of rat brain MAO-A using kynuramine substrate […] at 10 uM by spectrophotometric assay.

Test [6] concerns the target T2, Amine oxidase [flavin-containing] A. Briefly: Inhibition of rat brain MAO-A using kynuramine substrate […] by spectrophotometric assay.
The target of test [7] is T3, Amine oxidase [flavin-containing] A (Homo sapiens, UniProt P21397).
T3 sequence (P21397 whole entry): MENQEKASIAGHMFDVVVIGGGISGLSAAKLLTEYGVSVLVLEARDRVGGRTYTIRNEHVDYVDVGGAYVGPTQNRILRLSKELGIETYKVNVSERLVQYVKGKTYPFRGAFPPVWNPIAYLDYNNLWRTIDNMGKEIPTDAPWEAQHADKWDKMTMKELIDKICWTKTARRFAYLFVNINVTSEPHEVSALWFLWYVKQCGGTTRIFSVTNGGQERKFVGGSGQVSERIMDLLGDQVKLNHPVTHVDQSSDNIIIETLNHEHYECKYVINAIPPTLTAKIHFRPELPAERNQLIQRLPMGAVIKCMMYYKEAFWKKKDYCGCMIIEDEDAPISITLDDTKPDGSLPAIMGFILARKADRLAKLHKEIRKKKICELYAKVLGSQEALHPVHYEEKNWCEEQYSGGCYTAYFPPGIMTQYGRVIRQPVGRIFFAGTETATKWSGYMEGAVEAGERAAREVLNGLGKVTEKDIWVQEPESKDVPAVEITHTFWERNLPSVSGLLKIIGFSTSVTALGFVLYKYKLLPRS
The experiment in a line: Inhibition of human recombinant MAO-A using kynuramine substrate by spectrophotometric assay.

For test [8], the target named is T4, Amine oxidase [flavin-containing] B (Homo sapiens, UniProt P27338).
T4 sequence (P27338 whole entry): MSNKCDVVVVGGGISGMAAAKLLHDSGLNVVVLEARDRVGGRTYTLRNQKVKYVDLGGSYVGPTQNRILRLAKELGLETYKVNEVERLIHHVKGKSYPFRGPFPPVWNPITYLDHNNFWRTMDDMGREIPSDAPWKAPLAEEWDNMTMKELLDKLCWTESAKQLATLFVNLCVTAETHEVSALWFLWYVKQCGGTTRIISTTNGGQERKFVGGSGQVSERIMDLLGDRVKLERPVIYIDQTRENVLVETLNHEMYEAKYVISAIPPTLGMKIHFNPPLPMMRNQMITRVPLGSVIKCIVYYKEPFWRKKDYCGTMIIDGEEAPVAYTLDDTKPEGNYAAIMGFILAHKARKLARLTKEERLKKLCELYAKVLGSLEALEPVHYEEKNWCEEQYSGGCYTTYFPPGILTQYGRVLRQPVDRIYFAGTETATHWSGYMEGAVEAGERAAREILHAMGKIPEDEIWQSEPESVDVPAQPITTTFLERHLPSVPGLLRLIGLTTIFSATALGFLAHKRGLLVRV
Description: Inhibition of human recombinant MAO-B using kynuramine substrate by spectrophotometric assay

Test [9] deals with Cholinesterase (Equus caballus) (UniProt P81908). Briefly: Inhibition of equine serum BuChE at 10 uM by spectrophotometric Ellman's method.
Sequence of Cholinesterase (Equus caballus) (P81908 whole entry): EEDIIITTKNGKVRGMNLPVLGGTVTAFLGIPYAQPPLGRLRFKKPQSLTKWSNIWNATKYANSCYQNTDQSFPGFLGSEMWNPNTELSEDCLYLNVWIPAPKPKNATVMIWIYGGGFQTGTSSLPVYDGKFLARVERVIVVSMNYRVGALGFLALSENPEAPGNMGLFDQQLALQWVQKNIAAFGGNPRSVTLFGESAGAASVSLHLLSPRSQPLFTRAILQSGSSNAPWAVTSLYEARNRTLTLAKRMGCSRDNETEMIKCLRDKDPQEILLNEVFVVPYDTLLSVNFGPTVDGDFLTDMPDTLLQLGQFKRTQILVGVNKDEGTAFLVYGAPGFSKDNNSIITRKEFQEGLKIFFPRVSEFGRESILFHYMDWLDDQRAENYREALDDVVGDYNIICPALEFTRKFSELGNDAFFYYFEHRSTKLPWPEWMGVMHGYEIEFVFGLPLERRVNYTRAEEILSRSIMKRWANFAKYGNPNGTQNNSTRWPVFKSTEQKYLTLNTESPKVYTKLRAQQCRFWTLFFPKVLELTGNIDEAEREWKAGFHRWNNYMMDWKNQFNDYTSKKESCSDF

Sequence of Cholinesterase (P81908 whole entry): as above
Sequence of Acetylcholinesterase (Electrophorus electricus, UniProt O42275) (O42275 whole entry): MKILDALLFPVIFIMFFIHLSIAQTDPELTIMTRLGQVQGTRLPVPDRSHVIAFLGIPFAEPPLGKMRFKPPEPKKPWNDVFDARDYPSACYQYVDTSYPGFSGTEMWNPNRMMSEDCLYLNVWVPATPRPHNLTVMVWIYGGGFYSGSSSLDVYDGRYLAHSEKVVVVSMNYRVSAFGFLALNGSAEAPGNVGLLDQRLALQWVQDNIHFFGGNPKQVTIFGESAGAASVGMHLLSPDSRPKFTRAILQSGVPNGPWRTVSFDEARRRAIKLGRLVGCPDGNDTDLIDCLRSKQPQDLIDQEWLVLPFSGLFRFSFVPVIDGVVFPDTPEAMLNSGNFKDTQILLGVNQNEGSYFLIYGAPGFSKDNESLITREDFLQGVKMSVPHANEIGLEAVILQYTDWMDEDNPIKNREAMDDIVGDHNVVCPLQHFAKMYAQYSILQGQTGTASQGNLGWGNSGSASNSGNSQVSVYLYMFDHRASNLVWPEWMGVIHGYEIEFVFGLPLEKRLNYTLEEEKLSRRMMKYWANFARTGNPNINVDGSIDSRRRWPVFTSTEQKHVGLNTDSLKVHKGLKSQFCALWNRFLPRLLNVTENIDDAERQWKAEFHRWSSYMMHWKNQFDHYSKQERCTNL
Sequence of Acetylcholinesterase (Homo sapiens, UniProt P22303) (P22303 whole entry): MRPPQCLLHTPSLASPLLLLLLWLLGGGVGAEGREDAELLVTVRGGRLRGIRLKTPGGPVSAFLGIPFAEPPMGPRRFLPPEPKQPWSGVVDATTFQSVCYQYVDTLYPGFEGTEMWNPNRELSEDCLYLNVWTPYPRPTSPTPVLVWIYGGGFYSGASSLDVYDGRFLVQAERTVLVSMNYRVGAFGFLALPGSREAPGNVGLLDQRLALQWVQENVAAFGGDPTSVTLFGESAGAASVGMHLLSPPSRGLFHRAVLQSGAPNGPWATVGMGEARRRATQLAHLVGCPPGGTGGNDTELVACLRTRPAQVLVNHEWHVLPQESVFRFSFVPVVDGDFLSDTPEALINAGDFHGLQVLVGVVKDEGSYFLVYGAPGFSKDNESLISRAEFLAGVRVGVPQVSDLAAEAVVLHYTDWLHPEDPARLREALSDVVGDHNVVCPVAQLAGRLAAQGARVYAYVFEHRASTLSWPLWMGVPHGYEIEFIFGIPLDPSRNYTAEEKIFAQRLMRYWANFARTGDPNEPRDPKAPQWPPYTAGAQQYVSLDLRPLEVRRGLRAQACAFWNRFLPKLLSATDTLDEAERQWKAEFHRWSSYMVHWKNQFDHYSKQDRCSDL

For `Cc1cc(=O)oc2cc(OCc3ccc(CN(C)Cc4ccccc4)cc3)ccc12`, the IC50 amounted to 4100 nM in test [1], 910 nM in [2], 1000 nM in test [3] and 180 nM in test [4]. The inhibition at 10 µM in test [5] was 10%.

As to `CN(Cc1cccc(C#N)c1)Cc1cccc(COc2ccc3ccc(=O)oc3c2)c1`, the IC50 in test [1] is 3700 nM; in test [3] it was 2800 nM; in [4], 4200 nM. Further, the inhibition at 10 µM in [5] worked out at 2%.

In the case of `CCN(CCCOc1ccc2c(C)c(C)c(=O)oc2c1)Cc1ccccc1`, the IC50 in [6] is 7400 nM; in test [1] it was 980 nM; in test [3] it was 4000 nM; in test [4], 360 nM.

Consider `Cc1c(C)c2ccc(OCCCCN(C)Cc3ccccc3)cc2oc1=O`, for which the IC50 was 6600 nM in test [6]; 480 nM in [7]; 96 nM in test [8]; 1100 nM in test [1]; 790 nM in [2]; 3700 nM in test [3]. In test [4], this molecule displayed an IC50 of 490 nM.

In the case of `Cc1c(C)c2ccc(OCCCCCN(C)Cc3cccc(Cl)c3)cc2oc1=O`, the IC50 in test [1] amounted to 8900 nM; in test [3], 2600 nM; in test [4] it was 290 nM. This molecule registered an inhibition at 10 µM in [5] of 42%.

In test [9], `CN(Cc1ccc(C#N)cc1)Cc1ccc(COc2ccc3cc(C#N)c(=O)oc3c2)cc1` returned an inhibition of 14%. The molecule further returned an IC50 in test [1] of 990 nM. The same molecule returned an inhibition at 10 µM in test [5] of 0%.

In test [9], `Cc1c(C)c2ccc(OCc3ccc(CN(C)Cc4cccc(Cl)c4)cc3)cc2oc1=O` displayed an inhibition of 48%. Further, the IC50 in test [1] was determined as 3400 nM; in test [4], 660 nM. The molecule further registered an inhibition at 10 µM in [5] of 7%.

In the case of `Cc1cc2ccc(OCc3ccc(CN(C)Cc4cccc(Cl)c4)cc3)cc2oc1=O`, the inhibition in test [9] came out at 29%. Also, the values for the IC50 in test [1] and in test [4] were 4500 nM and 1300 nM, respectively. For the same molecule, in test [5], 10 µM produced 0% inhibition.

Take `CN(C)Cc1cccc(COc2ccc3ccc(=O)oc3c2)c1`: the IC50 in test [6] was 10000 nM; in [1], 3200 nM; in [3], 5300 nM.

Take `CN(C)Cc1ccc(COc2ccc3ccc(=O)oc3c2)cc1`: the IC50 worked out at 3700 nM in [1], 240 nM in [3] and 7100 nM in test [4]. The same molecule had an inhibition at 10 µM in test [5] of 17%.

Take `CN(Cc1ccccc1)Cc1cccc(COc2ccc3ccc(=O)oc3c2)c1`: the IC50 in [3] came out at 1000 nM; in [4], 2300 nM.

In the case of `O=c1ccc2ccc(OCc3ccc(CCNCc4ccccc4)cc3)cc2o1`, the concentration for half-maximal inhibition (IC50) stood at 640 nM in [3] and 4700 nM in [4].

As to `CN(CCc1ccc(COc2ccc3ccc(=O)oc3c2)cc1)Cc1ccccc1`, the IC50 stood at 520 nM in [3] and 850 nM in test [4].

On to `Cc1cc2ccc(OCc3ccc(CN(C)Cc4ccccc4)cc3)cc2oc1=O`, for which the IC50 in test [1] came out at 2400 nM; in [2], 500 nM; in test [3] it was 1100 nM; in test [4], 260 nM. Testing at 10 µM in [5] gave an inhibition of 0%.

As for `COc1cccc(CN(C)Cc2ccc(COc3ccc4ccc(=O)oc4c3)cc2)c1`, the IC50 in [1] was 2900 nM; in test [3], 1400 nM; in test [4] it was 4600 nM. The same molecule registered an inhibition at 10 µM in test [5] of 20%.

As for `CCN(CCCCCOc1ccc2c(C)c(C)c(=O)oc2c1)Cc1ccccc1`, the IC50 in [6] was 9500 nM; in test [1], 7800 nM; in test [3], 940 nM; in [4] it was 750 nM.

For `Cc1c(C)c2ccc(OCCCCCN(C)Cc3ccccc3)cc2oc1=O`, the IC50 in test [6] is 4200 nM; in test [1] it was 980 nM; in test [3], 2800 nM; in [4] it was 550 nM.

For `CN(Cc1ccc(COc2ccc3ccc(=O)oc3c2)cc1)Cc1cccc(C#N)c1`, the IC50 in [1] worked out at 2800 nM; in test [3] it was 4100 nM; in test [4] it was 7400 nM. Besides, 10 µM produced 5% inhibition in test [5].

As for `O=c1cc(CO)c2ccc(OCc3ccc(CNCc4ccccc4)cc3)cc2o1`, the IC50 worked out at 530 nM in test [1], 570 nM in test [3] and 440 nM in test [4]. The inhibition at 10 µM in [5] stood at 19%.

Take `Cc1cc(=O)oc2cc(OCc3ccc(CN(C)Cc4cccc(Cl)c4)cc3)ccc12`: in [9], the inhibition turned out to be 47%. Besides, the IC50 was 5000 nM in test [1], 1000 nM in [2] and 120 nM in [4]. Besides, the inhibition at 10 µM in [5] came to 0%.

For `CN(Cc1ccccc1)Cc1ccc(COc2ccc3ccc(=O)oc3c2)cc1`, the IC50 in [2] came out at 950 nM; in test [3], 11000 nM; in [4] it was 750 nM.

Regarding `CN(Cc1cccc(Cl)c1)Cc1cccc(COc2ccc3ccc(=O)oc3c2)c1`, the IC50 was 3400 nM in [1], 310 nM in [3] and 5700 nM in test [4]. In test [5], this molecule displayed an inhibition at 10 µM of 17%.

For `CN(Cc1ccc(COc2ccc3ccc(=O)oc3c2)cc1)Cc1cccc(Cl)c1`, the IC50 in [1] turned out to be 2700 nM; in test [3], 1200 nM; in test [4] it was 590 nM. This molecule also gave an inhibition at 10 µM in [5] of 12%.

As for `Cc1c(C)c2ccc(OCc3ccc(CN(C)Cc4ccc(C#N)cc4)cc3)cc2oc1=O`, the inhibition in [9] came out at 18%. Besides, the IC50 in test [2] was found to be 3900 nM; in test [4], 4200 nM.

In turn, `CN(Cc1ccc(C#N)cc1)Cc1ccc(COc2ccc3c(CO)cc(=O)oc3c2)cc1` had an inhibition in test [9] of 23%. The IC50 in [7] turned out to be 4480 nM; in [8], 5.7 nM; in [1] it was 35 nM; in test [4], 6300 nM. Testing at 10 µM in [5] gave an inhibition of 0%.

Turning to `Cc1c(C)c2ccc(OCCCCCN(C)Cc3cccc(C#N)c3)cc2oc1=O`, the IC50 was 5300 nM in [6], 2500 nM in test [1], 4100 nM in test [3] and 2300 nM in [4].

For `Cc1c(C)c2ccc(OCCCCCN(C)Cc3ccc(C#N)cc3)cc2oc1=O`, the IC50 in [1] is 3300 nM; in test [3], 4300 nM; in [4] it was 2800 nM. Moreover, testing at 10 µM in test [5] gave an inhibition of 48%.

With `COc1cccc(CN(C)Cc2cccc(COc3ccc4ccc(=O)oc4c3)c2)c1`, the figures for the IC50 in test [1], in test [3] and in [4] were 2500 nM, 880 nM and 6600 nM, respectively. Also, in test [5], the inhibition at 10 µM was 14%.
